What was measured:
[1] = test system: EG7 tumor cells; assay: Apoptosis of EG7 tumor cells by CD4+ NKT cell lines from peptide-immunized mice (Annexin V / 7-AAD); format: cell-based, mouse (C57BL/6, H-2b); details: EG7 cells cultured 18 h at ratio 1/1 with NKT cell lines from mice immunized with the peptide
Method: C57BL/6 mice (n=6) were immunized by four subcutaneous injections of 50 μg of peptide of SEQ ID NO: 3 in alum carried out at one-week interval.
Such peptide contains a CD1d-restricted NKT cell epitope derived from ovalbumin and a thioreductase motif in flanking residues. A control group (n=6) of mice received physiological serum in alum instead of peptide. Ten days after the last immunization the mice were sacrificed and spleen CD4+ T cells were prepared by magnetic cell sorting. Such cells were stimulated twice with the immunizing peptide in vitro before assessing their activation state as measured by the production of IL-4 and IFN-gamma.
CD4+ NKT cell lines were then assayed in vitro for their capacity to kill EG7 tumor cells. EG7 tumor cells (H-2b) are derived from a thymoma transduced with an ova construct. A CD1d restricted ova epitope is presented by such cells, which is known to be insufficient to trigger NKT activation and tumor cell killing.
EG7 cells were labeled at membrane level with 1 μM DiOC18 (3,3′ dioctadecycloxacarbocyanine perchlorate from Invitrogen). […] After 18 h, cells were harvested and stained for Annexin V and 7-AAD following manufacturer's instructions (Apoptosis Detection kit; BD Biosciences) and analysed on a FACSCantoll flow cytometer (BD Biosciences).

[2] = test system: Factor VIII specific CD4+ T cells; assay: Activation (IL-4, IFN-gamma production) of Factor VIII specific CD4+ T cells from mice immunized with peptide, then injected with human factor VIII; format: in vivo, BALB/c Factor VIII KO mice; details: mice immunized 4 times with 50 μg peptide vs control group without peptide; spleen CD4+ T cells restimulated in vitro
Method: BALB/c Factor VIII KO mice (group A) were immunized 4 times at 1 week interval with 50 μg of peptide 2196, which contains a CD1d-restricted NKT cell epitope and a C-XX-C (SEQ ID NO: 14) thioreductase motif within flanking residues (SEQ ID NO: 1).
Human factor VIII was then injected by the subcutaneous route using 10 IU per injection on 5 occasions separated by one week. Ten days after the last immunization the mice were sacrificed and spleen CD4+ T cells were prepared by magnetic cell sorting. Such cells were stimulated twice with the immunizing peptide and FVIII in vitro before assessing their activation state as measured by the production of IL-4 and IFN-gamma. […] The results (FIG. 1) show a 10-fold reduction of IL-4 production by Factor VIII specific CD4+ T cells obtained from mice immunized with the peptide as compared to the control group, and a 7-fold reduction in the production of IFN-gamma. Results are shown as means+SEM.

[3] = test system: Der p I induced asthma in BALB/c mice; assay: Prevention of Der p I induced allergic asthma by peptide immunization; format: in vivo; details: 4 injections of 50 μg peptide; Der p I nasal instillation 10 days after last immunization
Text: Allergens from the house dust mite, D. pteronyssinus, are frequently involved in allergic asthma. Der p I is the main allergen of D. pteronyssinus. The sequence of Der p I contains a CD1d binding motif corresponding to amino acid sequence 38 to 44. A peptide of sequence WAFSGVAATES (SEQ ID NO: 12) is produced by synthesis as well as its counterpart containing a thioreductase motif Thus, peptide of CGPCGGFSGVAATES (SEQ ID NO: 8) contains a thioreductase motif (underlined) and a linker of 2 glycines between the motif and the CD1d-binding motif.
Allergic asthma can be induced in BALB/c mice by nasal instillations of 100 μg Der p I administered on 3 consecutive days. Asthma is characterized by bronchial hyperreactivity and attraction of eosinophil infiltrates into the lung.
BALB/c mice are immunized by 4 injections of 50 μg of peptides of either SEQ ID8 or peptide in natural sequence as a control. Der p I is administered by nasal instillation 10 days after the last immunization.

[4] = test system: Ad5 viral particles; assay: Anti-Ad5 IgG antibody response after peptide immunization and Ad5 injection (direct binding ELISA); format: in vivo, C57BL/6 mice; details: four sc injections of 50 μg peptide in alum, then 2 IV Ad5 injections; serum 10 days after last Ad5 injection
Method: C57BL/6 mice (n=6) were immunized by four subcutaneous injections of 50 μg of peptide of SEQ ID NO: 2 in alum carried out at one-week interval.
Such peptide contains a CD1d-restricted NKT cell epitope of hex on protein of adenovirus (Ad5) and a thioreductase motif in flanking residues. A control group (n=6) of mice received physiological serum in alum instead of peptide. All mice then received 2 injections of 109 Ad5 viral particles by the IV route, separated by I week. Ten days after the last Ad5 injection, mice were bled and the concentration of total IgG antibodies to Ad5 particles was measured in a direct binding ELISA Briefly, Ad5 viral particles were insolubilized on polystyrene plates, followed by washing and incubation with a dilution of mouse serum. After a second washing, the binding of mouse anti-Ad5 antibodies was detected by addition of a goat antiserum to mouse IgG. […] Results are given in arbitrary units as means+SEM.

[5] = test system: EAE (experimental autoimmune encephalomyelitis) in C57BL/6 mice; assay: Prevention of EAE by pre-immunization with MOG peptide; format: in vivo; details: four sc immunizations (50 μg) before disease induction with MOG 35-55
Method: MOG contains a sequence which binds to CD1d and activates NKT cells. Thus, peptide of sequence PHFLRVPCWKI (SEQ ID NO: 10) is produced by synthesis and a thioreductase-containing peptide of sequence CHGCGGFLRVPCWKI (peptide of SEQ ID NO: 6, in which the thioreductase motif is underlined and a linker of 2 glycines between the motif and the CD1d-binding motif).
Groups of C57BL/6 mice are immunized four times subcutaneously (50 μg) with peptide of SEQ ID6 or, as a control, with peptide in natural sequence. Ten days after the last immunization, all mice, including a group of naive, non-immunized animals, are induced into disease by subcutaneous injection of 100 μg MOG 35-55 peptide/400 μg Mycobacterium butyricum in CFA and ip injection of 300 ng Bordetella pertussis in NaCl. At day +2, a second injection of B. pertussis is given.
Signs of EAE are followed over time.

[6] = test system: NOD mice; assay: Prevention of spontaneous insulin-dependent diabetes in NOD mice with GAD65 derived peptides; format: in vivo; details: female NOD mice, 4 sc injections from the age of 4 weeks
Text: GAD65 contains amino acid sequences with the capacity to bind to CD1d. Thus, the sequence PQHTNVCFWFV (SEQ ID NO: 11), corresponding to amino acids 501 to 507 of GAD65, is produced by synthesis, as well as its counterpart encompassing a thioreductase motif within flanking residues: peptide of CHGCGGHTNVCFWFV (SEQ ID NO: 7) (with the thioreductase motif underlined and a linker of 2 glycines between the motif and the CD1d binding motif).
Female NOD mice are immunized from the age of 4 weeks by 4 subcutaneous injections of peptides of either SEQ ID7 or natural sequence, and glycaemia is followed in each of these groups, by comparison to a non-immunized group.

[7] = test system: R113 tumor cells; assay: Killing of R113 tumor cells by NKT cells stimulated with ALK peptide (Annexin V binding); format: cell-based, C57BL/6 mice; details: 20 h co-culture with NKT cells stimulated with the peptide
Method: CD4 T cells (C57BL/6, H-2b background) obtained from the spleen of naive mice were stimulated four times with autologous dendritic cells loaded with a CD1d-restricted NKT cell epitope of ALK, to which a thioreductase motif of the C-XX-C (SEQ ID NO: 14) format was added within flanking residues. (Peptide of CHGCGGWLQIVTWWGPGS (SEQ ID NO: 5) (with thioreductase motif underlined and 2 glycines used as linker between the motif and the CD1d-restricted epitope)).
As NKT cells have per se a cytolytic activity, we included cells which were stimulated in parallel experiments by exposure to the same CD1d-restricted NKT epitope in natural sequence, without thioredox motif (WLQIVTWWGPGS) (SEQ ID NO: 9).
Ten days after the last stimulation, CD4 T cells were washed and added to cell culture microplates containing 104 Rl13 tum or cells at a 2 to 1 ratio (CD4 to tum or cells). Rl13 is a tumor B cell line obtained from C57BL/6 mice, which constitutively expresses ALK.
After 20 h of co-culture, Rl13 tumor cells were evaluated for Annexin V binding used as marker of cell apoptosis.

[8] = test system: BALB/c-derived ALK+ tumor cell line (VAC); assay: Killing of VAC ALK+ tumor cells by NKT cells stimulated with ALK peptide (Annexin-V binding by FACS); format: cell-based, BALB/c mice; details: VAC cells co-cultured with BALB/c NKT cells stimulated with the peptide; mean of triplicates
Method: Co-culture with a BALB/c-derived ALK+tumor cell line (VAC) was carried out as described above. Apoptosis of tumor cells was measured by evaluating Annexin-V binding by FACS.

Question: How did the “apoptosis of EG7 tumor cells” value [1] turn out when “CGH CGG FDKLPGF (CGHCGGFDKLPGF) [SEQ ID3]” was run?
Answer: are induced into apoptosis

Question: With “CGH CGG FTN MFA TWS PSK (CGHCGGFTNMFATWSPSK) [peptide 2196]” as the substance, how does the “reduction in the production of IFN-gamma by Factor VIII specific CD4+ T cells” value [2] read?
Answer: 7 fold

Question: What about the “reduction of IL-4 production by Factor VIII specific CD4+ T cells” value [2] of the same substance?
Answer: 10 fold

Question: With CGPCGGFSGVAATES [SEQ ID8] as the substance, how does the “airway reactivity to inhalation of methacholine” value [3] read?
Answer: do not develop airway reactivity to inhalation of methacholine

Question: And the “lung infiltration with eosinophils” value [3]?
Answer: do not show lung infiltration with eosinophils

Question: How did the “total IgG antibodies to Ad5 particles” value [4] turn out when “CHG CGG FIGLMYY (CHGCGGFIGLMYY) [SEQ ID NO: 2]” was run?
Answer: did not produce significant amounts of antibodies

Question: Which “signs of EAE” value [5] does the source give for “CHGCGGFLRVPCWKI [SEQ ID6, thioreductase-containing MOG peptide]” here?
Answer: do not develop EAE

Question: For CHGCGGHTNVCFWFV [SEQ ID7], which glycaemia [6] is on record?
Answer: prevented from hyperglycaemia

Question: Which “increase in tumor cell death as compared to tumor cells cultured alone” value [7] does the source give for “CHGCGGWLQIVTWWGPGS [peptide of sequence 1]” here?
Answer: 4.5 fold

Question: What about the “tumor cell death (Annexin V binding)” value ([7]; 2 to 1 ratio, mean of triplicates) of the same substance?
Answer: 18%

Question: What about the “tumor cell death (Annexin-V binding)” value [8] of the same substance?
Answer: 25%

Question: How did the glycaemia [6] turn out when “PQHTNVCFWFV [SEQ ID NO: 11, reference compound]” was run?
Answer: develop hyperglycaemia starting after the 14th week

Reference: US11193114B2, “Immunogenic peptides for use in the prevention and/or treatment of infectious diseases, autoimmune diseases, immune responses to allofactors, allergic diseases, tumors, graft rejection and immune responses against viral vectors used for gene therapy or gene vaccination” (IMNATE SARL, priority 2010, dated 2021)
